Test results: US12227500B2, “Substituted pyrrolo[2,3-b]pyridines for suppressing toxic endoplasmic reticulum stress” (THE TRUSTEES OF COLUMBIA UNIVERSITY IN THE CITY OF NEW YORK, priority 2018, dated 2025)
Where two headings read alike, the source gives them in different places.

Key:
Test in all cases: Radiolabeled ATP kinase assay, panel of 371 kinases (Table S6)
Assay type in all cases: biochemical
[1] = target: T1, panel of 371 human kinases (Homo sapiens, UniProt O95382); conditions: MEKK6; 0.1 μM; 10 μM ATP; read-out: % Enzyme Activity (relative to DMSO controls)
T1 construct: purchased Reaction Biology Corp
Description: (§1) ; FIG. 38C). […]. Further targeted analyses, such as genetic knock-down or knock-out, may be warranted to parse the role of these additional kinases in our model of neurodegeneration.

[2] = target: T2, panel of 371 human kinases (Homo sapiens, UniProt P07332); conditions: FES/FPS; 0.1 μM; 10 μM ATP; read-out: % Enzyme Activity (relative to DMSO controls)
T2 construct: purchased Reaction Biology Corp
Description: as §1

[3] = target: T3, panel of 371 human kinases (Homo sapiens, UniProt Q16288); conditions: TRKC; 0.1 μM; 10 μM ATP; read-out: % Enzyme Activity (relative to DMSO controls)
T3 construct: purchased Reaction Biology Corp
Description: as §1

[4] = target: T4, panel of 371 human kinases (Homo sapiens, UniProt O75460); conditions: ERN1/IRE1; 0.1 μM; 10 μM ATP; read-out: % Enzyme Activity (relative to DMSO controls)
T4 construct: purchased Reaction Biology Corp
Description: as §1

[5] = target: T5, panel of 371 human kinases (Homo sapiens, UniProt O14578); conditions: STK21/CIT; 0.1 μM; 10 μM ATP; read-out: % Enzyme Activity (relative to DMSO controls)
T5 construct: purchased Reaction Biology Corp
Description: as §1

[6] = target: T6, panel of 371 human kinases (Homo sapiens, UniProt P29322); conditions: EPHA8; 0.1 μM; 10 μM ATP; read-out: % Enzyme Activity (relative to DMSO controls)
T6 construct: purchased Reaction Biology Corp
Description: as §1

[7] = target: T7, panel of 371 human kinases (Homo sapiens, UniProt Q9Y572); conditions: RIPK3; 0.1 μM; 10 μM ATP; read-out: % Enzyme Activity (relative to DMSO controls)
T7 construct: purchased Reaction Biology Corp
Description: as §1

[8] = target: T8, panel of 371 human kinases (Homo sapiens, UniProt P22612); conditions: PKAcg; 0.1 μM; 10 μM ATP; read-out: % Enzyme Activity (relative to DMSO controls)
T8 construct: purchased Reaction Biology Corp
Description: as §1

[9] = target: T9, panel of 371 human kinases (Homo sapiens, UniProt P29597); conditions: TYK2; 0.1 μM; 10 μM ATP; read-out: % Enzyme Activity (relative to DMSO controls)
T9 construct: purchased Reaction Biology Corp
Description: as §1

[10] = target: T10, panel of 371 human kinases (Homo sapiens, UniProt Q16620); conditions: TRKB; 0.1 μM; 10 μM ATP; read-out: % Enzyme Activity (relative to DMSO controls)
T10 construct: purchased Reaction Biology Corp
Description: as §1

[11] = target: T11, panel of 371 human kinases (Homo sapiens, UniProt P51812); conditions: RSK2; 0.1 μM; 10 μM ATP; read-out: % Enzyme Activity (relative to DMSO controls)
T11 construct: purchased Reaction Biology Corp
Description: as §1

[12] = target: T12, panel of 371 human kinases (Homo sapiens, UniProt Q96GD4); conditions: Aurora B; 0.1 μM; 10 μM ATP; read-out: % Enzyme Activity (relative to DMSO controls)
T12 construct: purchased Reaction Biology Corp
Description: as §1

[13] = target: T13, panel of 371 human kinases (Homo sapiens, UniProt Q9BYT3); conditions: STK33; 0.1 μM; 10 μM ATP; read-out: % Enzyme Activity (relative to DMSO controls)
T13 construct: purchased Reaction Biology Corp
Description: as §1

[14] = target: T14, panel of 371 human kinases (Homo sapiens, UniProt Q15349); conditions: RSK3; 0.1 μM; 10 μM ATP; read-out: % Enzyme Activity (relative to DMSO controls)
T14 construct: purchased Reaction Biology Corp
Description: as §1

[15] = target: T15, panel of 371 human kinases (Homo sapiens, UniProt P34947); conditions: GRK5; 0.1 μM; 10 μM ATP; read-out: % Enzyme Activity (relative to DMSO controls)
T15 construct: purchased Reaction Biology Corp
Description: as §1

[16] = target: T16, panel of 371 human kinases (Homo sapiens, UniProt P50750); conditions: 0.1 μM, 10 μM ATP, read-out: % Enzyme Activity (relative to DMSO controls)
T16 construct: purchased Reaction Biology Corp
Description: as §1

[17] = target: T17, panel of 371 human kinases (Homo sapiens, UniProt P15056); conditions: BRAF; 0.1 μM; 10 μM ATP; read-out: % Enzyme Activity (relative to DMSO controls)
T17 construct: purchased Reaction Biology Corp
Description: as §1

[18] = target: T18, panel of 371 human kinases (Homo sapiens, UniProt Q9H093); conditions: SNARK/NUAK2; 0.1 μM; 10 μM ATP; read-out: % Enzyme Activity (relative to DMSO controls)
T18 construct: purchased Reaction Biology Corp
Description: as §1

[19] = target: T19, panel of 371 human kinases (Homo sapiens, UniProt P29320); conditions: EPHA3; 0.1 μM; 10 μM ATP; read-out: % Enzyme Activity (relative to DMSO controls)
T19 construct: purchased Reaction Biology Corp
Description: as §1

[20] = target: T20, panel of 371 human kinases (Homo sapiens, UniProt P42679); conditions: CTK/MATK; 0.1 μM; 10 μM ATP; read-out: % Enzyme Activity (relative to DMSO controls)
T20 construct: purchased Reaction Biology Corp
Description: as §1

[21] = target: T21, panel of 371 human kinases (Homo sapiens, UniProt P49840); conditions: GSK3a; 0.1 μM; 10 μM ATP; read-out: % Enzyme Activity (relative to DMSO controls)
T21 construct: purchased Reaction Biology Corp
Description: as §1

[22] = target: T22, panel of 371 human kinases (Homo sapiens, UniProt P07949); conditions: RET; 0.1 μM; 10 μM ATP; read-out: % Enzyme Activity (relative to DMSO controls)
T22 construct: purchased Reaction Biology Corp
Description: as §1

[23] = target: T23, panel of 371 human kinases (Homo sapiens, UniProt P51813); conditions: BMX/ETK; 0.1 μM; 10 μM ATP; read-out: % Enzyme Activity (relative to DMSO controls)
T23 construct: purchased Reaction Biology Corp
Description: as §1

[24] = target: T24, panel of 371 human kinases (Homo sapiens, UniProt P54756); conditions: EPHA5; 0.1 μM; 10 μM ATP; read-out: % Enzyme Activity (relative to DMSO controls)
T24 construct: purchased Reaction Biology Corp
Description: as §1

T16 sequence (P50750 whole entry): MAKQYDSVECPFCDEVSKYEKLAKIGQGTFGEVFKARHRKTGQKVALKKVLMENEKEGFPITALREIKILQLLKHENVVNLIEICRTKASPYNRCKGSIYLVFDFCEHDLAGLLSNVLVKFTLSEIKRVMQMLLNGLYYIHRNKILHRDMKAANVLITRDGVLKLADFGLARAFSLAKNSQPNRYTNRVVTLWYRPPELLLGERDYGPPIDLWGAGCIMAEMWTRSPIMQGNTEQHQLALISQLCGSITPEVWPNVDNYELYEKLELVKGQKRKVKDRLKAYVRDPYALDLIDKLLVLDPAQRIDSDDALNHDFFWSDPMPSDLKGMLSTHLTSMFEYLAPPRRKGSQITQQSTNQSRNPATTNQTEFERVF
T7 sequence (Q9Y572 whole entry): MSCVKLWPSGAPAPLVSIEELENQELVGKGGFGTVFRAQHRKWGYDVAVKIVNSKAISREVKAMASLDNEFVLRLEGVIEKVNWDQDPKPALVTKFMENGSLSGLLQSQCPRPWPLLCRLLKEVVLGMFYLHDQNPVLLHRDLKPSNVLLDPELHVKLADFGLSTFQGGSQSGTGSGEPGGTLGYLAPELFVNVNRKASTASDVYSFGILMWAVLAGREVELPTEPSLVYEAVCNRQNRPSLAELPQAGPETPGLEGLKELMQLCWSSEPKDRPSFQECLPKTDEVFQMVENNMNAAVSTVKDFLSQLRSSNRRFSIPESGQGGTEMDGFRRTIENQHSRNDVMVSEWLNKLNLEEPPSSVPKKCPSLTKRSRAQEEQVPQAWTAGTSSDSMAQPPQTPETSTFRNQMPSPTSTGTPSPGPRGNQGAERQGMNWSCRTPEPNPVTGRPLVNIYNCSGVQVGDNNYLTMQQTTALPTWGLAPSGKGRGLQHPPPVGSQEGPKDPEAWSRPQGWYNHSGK
T9 sequence (P29597 whole entry): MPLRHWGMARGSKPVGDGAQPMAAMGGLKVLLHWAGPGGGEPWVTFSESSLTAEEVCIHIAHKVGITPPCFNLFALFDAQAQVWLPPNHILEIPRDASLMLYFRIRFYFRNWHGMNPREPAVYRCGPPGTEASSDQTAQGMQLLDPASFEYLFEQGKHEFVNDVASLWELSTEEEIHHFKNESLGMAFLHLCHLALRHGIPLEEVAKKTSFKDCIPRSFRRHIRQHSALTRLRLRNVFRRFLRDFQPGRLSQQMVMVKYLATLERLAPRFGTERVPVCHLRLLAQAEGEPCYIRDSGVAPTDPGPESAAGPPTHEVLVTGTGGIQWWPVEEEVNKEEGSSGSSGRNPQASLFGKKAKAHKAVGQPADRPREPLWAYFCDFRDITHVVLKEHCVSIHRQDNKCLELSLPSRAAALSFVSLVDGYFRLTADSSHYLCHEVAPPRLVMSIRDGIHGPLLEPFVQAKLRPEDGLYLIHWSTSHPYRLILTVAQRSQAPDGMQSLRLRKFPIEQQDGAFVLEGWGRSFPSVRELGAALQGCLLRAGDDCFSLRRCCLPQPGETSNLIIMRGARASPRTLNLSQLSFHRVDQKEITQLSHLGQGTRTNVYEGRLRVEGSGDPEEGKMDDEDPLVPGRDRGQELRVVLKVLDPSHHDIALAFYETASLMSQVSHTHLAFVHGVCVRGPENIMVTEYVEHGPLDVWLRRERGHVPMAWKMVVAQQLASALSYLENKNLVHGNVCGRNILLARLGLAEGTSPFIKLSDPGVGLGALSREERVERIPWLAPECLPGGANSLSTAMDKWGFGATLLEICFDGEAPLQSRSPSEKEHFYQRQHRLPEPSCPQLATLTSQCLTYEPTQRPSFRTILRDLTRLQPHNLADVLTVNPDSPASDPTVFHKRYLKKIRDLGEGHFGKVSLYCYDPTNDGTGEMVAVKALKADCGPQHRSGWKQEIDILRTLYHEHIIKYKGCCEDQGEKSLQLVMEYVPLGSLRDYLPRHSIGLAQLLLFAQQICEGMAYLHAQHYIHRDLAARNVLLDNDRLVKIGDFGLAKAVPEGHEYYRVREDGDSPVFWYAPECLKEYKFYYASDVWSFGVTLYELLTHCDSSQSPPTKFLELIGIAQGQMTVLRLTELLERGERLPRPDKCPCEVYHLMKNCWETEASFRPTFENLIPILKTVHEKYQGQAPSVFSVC
T14 sequence (Q15349 whole entry): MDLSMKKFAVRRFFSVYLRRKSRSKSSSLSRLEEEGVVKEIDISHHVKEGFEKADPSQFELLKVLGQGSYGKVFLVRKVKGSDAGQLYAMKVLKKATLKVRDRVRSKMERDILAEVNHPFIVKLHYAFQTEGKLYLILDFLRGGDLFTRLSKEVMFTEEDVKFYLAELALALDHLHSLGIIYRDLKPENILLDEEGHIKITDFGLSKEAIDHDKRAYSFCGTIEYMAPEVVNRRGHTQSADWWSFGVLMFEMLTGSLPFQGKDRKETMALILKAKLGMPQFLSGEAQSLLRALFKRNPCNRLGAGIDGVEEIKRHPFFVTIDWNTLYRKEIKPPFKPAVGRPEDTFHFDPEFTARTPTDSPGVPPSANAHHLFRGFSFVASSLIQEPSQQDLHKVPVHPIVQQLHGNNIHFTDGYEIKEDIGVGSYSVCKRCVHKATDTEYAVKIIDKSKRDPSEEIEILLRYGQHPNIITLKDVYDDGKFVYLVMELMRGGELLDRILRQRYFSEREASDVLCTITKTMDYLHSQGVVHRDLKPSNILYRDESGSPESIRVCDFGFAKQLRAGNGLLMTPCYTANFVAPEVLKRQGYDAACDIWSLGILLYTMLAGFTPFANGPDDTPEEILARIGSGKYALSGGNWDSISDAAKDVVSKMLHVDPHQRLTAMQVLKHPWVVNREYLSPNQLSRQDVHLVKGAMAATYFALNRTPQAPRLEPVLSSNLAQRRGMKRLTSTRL
T22 sequence (P07949 29-1114): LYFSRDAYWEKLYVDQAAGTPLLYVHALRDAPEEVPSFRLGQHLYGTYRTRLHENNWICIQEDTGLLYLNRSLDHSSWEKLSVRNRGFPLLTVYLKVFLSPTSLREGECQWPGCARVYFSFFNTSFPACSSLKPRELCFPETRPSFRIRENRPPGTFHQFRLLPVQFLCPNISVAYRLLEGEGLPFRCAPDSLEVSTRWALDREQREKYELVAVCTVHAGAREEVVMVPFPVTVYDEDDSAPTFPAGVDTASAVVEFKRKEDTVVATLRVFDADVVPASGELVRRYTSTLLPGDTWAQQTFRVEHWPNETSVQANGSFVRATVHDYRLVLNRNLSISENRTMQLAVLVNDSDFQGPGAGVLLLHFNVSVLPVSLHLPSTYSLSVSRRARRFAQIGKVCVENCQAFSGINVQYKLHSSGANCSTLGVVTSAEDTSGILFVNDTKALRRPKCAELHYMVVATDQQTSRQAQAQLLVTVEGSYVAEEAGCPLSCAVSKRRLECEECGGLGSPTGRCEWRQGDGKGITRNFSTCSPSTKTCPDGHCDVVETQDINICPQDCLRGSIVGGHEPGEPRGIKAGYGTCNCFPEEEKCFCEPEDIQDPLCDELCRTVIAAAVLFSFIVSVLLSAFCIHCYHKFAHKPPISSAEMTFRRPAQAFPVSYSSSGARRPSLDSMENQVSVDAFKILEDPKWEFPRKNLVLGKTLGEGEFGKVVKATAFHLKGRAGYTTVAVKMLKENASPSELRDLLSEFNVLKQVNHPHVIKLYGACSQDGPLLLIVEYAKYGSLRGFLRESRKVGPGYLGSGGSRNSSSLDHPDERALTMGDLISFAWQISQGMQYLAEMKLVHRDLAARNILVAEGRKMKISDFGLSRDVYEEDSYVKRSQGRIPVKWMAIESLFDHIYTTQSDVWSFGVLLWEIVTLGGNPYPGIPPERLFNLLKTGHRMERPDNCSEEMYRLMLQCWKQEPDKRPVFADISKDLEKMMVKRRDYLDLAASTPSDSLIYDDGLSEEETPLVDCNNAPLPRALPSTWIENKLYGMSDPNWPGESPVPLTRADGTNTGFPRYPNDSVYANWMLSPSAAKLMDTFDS
T15 sequence (P34947 whole entry): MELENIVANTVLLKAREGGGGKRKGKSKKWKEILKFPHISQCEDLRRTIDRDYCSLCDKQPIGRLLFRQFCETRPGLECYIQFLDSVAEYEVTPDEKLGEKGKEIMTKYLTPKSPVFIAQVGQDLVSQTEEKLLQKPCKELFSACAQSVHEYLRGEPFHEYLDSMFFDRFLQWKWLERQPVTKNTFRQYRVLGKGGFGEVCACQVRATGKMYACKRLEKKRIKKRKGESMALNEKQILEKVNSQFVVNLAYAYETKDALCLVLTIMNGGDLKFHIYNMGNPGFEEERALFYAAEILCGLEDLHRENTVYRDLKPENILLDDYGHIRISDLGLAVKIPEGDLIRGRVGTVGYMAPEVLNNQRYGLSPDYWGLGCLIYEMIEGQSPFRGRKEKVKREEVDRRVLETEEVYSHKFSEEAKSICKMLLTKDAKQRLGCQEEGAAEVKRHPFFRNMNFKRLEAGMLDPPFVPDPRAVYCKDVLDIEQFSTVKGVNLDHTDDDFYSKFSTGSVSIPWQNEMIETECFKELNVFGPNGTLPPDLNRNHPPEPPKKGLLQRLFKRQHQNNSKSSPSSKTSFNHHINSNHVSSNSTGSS
T12 sequence (Q96GD4 whole entry): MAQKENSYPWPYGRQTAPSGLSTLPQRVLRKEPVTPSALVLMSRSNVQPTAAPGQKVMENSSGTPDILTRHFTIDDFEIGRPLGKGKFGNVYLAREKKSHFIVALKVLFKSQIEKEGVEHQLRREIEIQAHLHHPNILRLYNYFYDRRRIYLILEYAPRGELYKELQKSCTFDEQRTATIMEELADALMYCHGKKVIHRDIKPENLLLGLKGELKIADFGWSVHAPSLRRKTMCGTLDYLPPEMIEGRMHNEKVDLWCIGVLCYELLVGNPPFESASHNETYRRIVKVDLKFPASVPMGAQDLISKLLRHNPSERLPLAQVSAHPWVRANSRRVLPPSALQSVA

| SMILES | remaining activity at 0.1 µM [1] | remaining activity at 0.1 µM [2] | remaining activity at 0.1 µM [3] | remaining activity at 0.1 µM [4] | remaining activity at 0.1 µM [5] | remaining activity at 0.1 µM [6] | remaining activity at 0.1 µM [7] | remaining activity at 0.1 µM [8] | remaining activity at 0.1 µM [9] | remaining activity at 0.1 µM [10] | remaining activity at 0.1 µM [11] | remaining activity at 0.1 µM [12] | remaining activity at 0.1 µM [13] | remaining activity at 0.1 µM [14] | remaining activity at 0.1 µM [15] | remaining activity at 0.1 µM ([16]; CDK9/cyclin K) | remaining activity at 0.1 µM ([16]; CDK9/cyclin T1) | remaining activity at 0.1 µM ([16]; CDK9/cyclin T2) | remaining activity at 0.1 µM [17] | remaining activity at 0.1 µM [18] | other results |
| --- | --- | --- | --- | --- | --- | --- | --- | --- | --- | --- | --- | --- | --- | --- | --- | --- | --- | --- | --- | --- | --- |
| OCCN1CCN(Cc2ccc(-c3cnc4[nH]cc(-c5cccc(Cl)c5)c4c3)cc2)CC1 [Compound 12k, 2-(4-(4-(3-(3-Chlorophenyl)-1H-pyrrolo[2,3-b]pyridin-5-yl)benzyl)piperazin-1-yl)ethan-1-ol] | 95% | 77.9% | 52.2% | 98.9% | 104% | 93.5% | 99.4% | 99.4% | 92.9% | 77.4% | 77.3% | 82.6% | 88.6% | 45.3% | 93.3% | 88.5% | 88.7% | 99.1% | 98% | 59.5% | remaining activity at 0.1 µM [19]: 98.2%; remaining activity at 0.1 µM [20]: 96.5%; remaining activity at 0.1 µM [21]: 91.6%; remaining activity at 0.1 µM [22]: 91.5%; remaining activity at 0.1 µM [23]: 103%; remaining activity at 0.1 µM [24]: 98.8% |
| CN1CCN(Cc2ccc(-c3cnc4[nH]cc(-c5ccc6[nH]ccc6c5)c4c3)cc2)CC1 [Compound 1, 3-(1H-Indol-5-yl)-5-(4-((4-methylpiperazin-1-yl)methyl)phenyl)-1H-pyrrolo[2,3-b]pyridine, reference compound] | 91.6% | 68.2% | 19.4% | 107% | 103% | 90.8% | 100% | 102% | 90.8% | 59.3% | 105% | 103% | 72.6% | 61.7% | 98.2% | 79.8% | 86% | 112% | 105% | 82.8% | remaining activity at 0.1 µM [19]: 99.8%; remaining activity at 0.1 µM [20]: 102%; remaining activity at 0.1 µM [21]: 84.8%; remaining activity at 0.1 µM [22]: 76.7%; remaining activity at 0.1 µM [23]: 101%; remaining activity at 0.1 µM [24]: 94.2% |
